From ChEMBL document CHEMBL4229342, “Synthesis of novel proxyphylline derivatives with dual Anti-Candida albicans and anticancer activity” (Eur J Med Chem, 2018)
Converted amounts (≈) assume the structure as drawn.

Experiments:
Assay type in all cases: functional
Candida albicans [1] = experiment: Growth inhibition of Candida albicans ATCC 90028 at 0.625 ug/ml incubated for 18 hrs at 35 degC by broth microdilution method relative to control; conditions: ATCC 90028, 18 h, read-out: GI
Candida albicans [2] = experiment: Growth inhibition of Candida albicans ATCC 90028 at 0.625 ug/ml incubated for 48 hrs at 35 degC by broth microdilution method relative to control; conditions: ATCC 90028, 48 h, read-out: GI
Candida albicans [3] = experiment: Antifungal activity against Candida albicans ATCC 90028 assessed as reduction in cell viability at 1022.5 to 0.06 uM after 48 hrs in presence of ergosterol by XTT assay; conditions: ATCC 90028, 48 h
Candida albicans [4] = experiment: Antifungal activity against Candida albicans ATCC 90028 assessed as reduction in cell viability at 0.1 uM after 48 hrs in presence of ergosterol by XTT assay
Candida albicans [5] = experiment: Antifungal activity against Candida albicans ATCC 90028 assessed as reduction in cell viability at 0.3 uM after 48 hrs in absence of ergosterol by XTT assay
Candida albicans [6] = experiment: Antifungal activity against Candida albicans ATCC 90028 assessed as reduction in cell viability after 48 hrs in absence of ergosterol by XTT assay; conditions: ATCC 90028, 48 h

`C[C@@H]1[C@H](O)[C@@H](C)/C=C/C=C/C=C/C=C/C=C/C=C/C=C/[C@H](O[C@@H]2O[C@H](C)[C@@H](O)[C@H](N)[C@@H]2O)C[C@@H]2O[C@](O)(C[C@@H](O)C[C@@H](O)[C@H](O)CC[C@@H](O)C[C@@H](O)CC(=O)O[C@H]1C)C[C@H](O)[C@H]2C(=O)O` [AMPHOTERICIN B] showed an inhibition of growth at 0.625 µg/mL (Candida albicans [1]) of 100%, an inhibition of growth at 0.625 µg/mL (Candida albicans [2]) of 100% and an MIC (Candida albicans [3]) of 0.1 µM. For the same compound, the Activity (Candida albicans [4]) was 78.5%, the Activity (Candida albicans [5]) was 95.5% and the MIC (Candida albicans [6]) was 0.3 µM (≈ 0.277 µg/mL).
